# Test results reported in patent publication US20210231678A1, “ALLERGY ANTIGEN AND EPITOPE THEREOF” (FUJITA ACADEMY, priority 2020, published 2021).
# Tested on: IgE antibody present in the serum of a patient (latex-allergic)
# Assay: Latex epitope mapping (2) overlapping 10-residue peptides and (3) alanine/glycine scanning on peptide arrays
# Assay type: binding, human
# Conditions: for confirmed as epitope binding to IgE antibodies: short partial sequences of the 15-residue epitopes
# Procedure: On the basis of the sequences (SEQ ID NOs: 5, 25, 35, 68 and 83) of the peptides bound to an IgE antibody in serum in a patient-specific manner as described above in (A), a library of overlapping peptide fragments (length: 10 amino acids) was prepared using the sequences of the peptides and sequences in which sequences were added so as to flank each peptide in the amino acid sequences of allergy components comprising the sequences of the peptide. Epitope mapping was carried out using the library.
# The peptides to be synthesized were shifted by one amino acid.
# The library was prepared by the same procedure as described above in (A), and the presence or absence of binding of an IgE antibody present in the serum of a patient to each peptide fragment was measured by the same technique as described above. Numeric values determined from images obtained as a result of carrying out only the procedures (1) and (4) to (6) described above in the subsection titled (3) Spotting of cellulose-bound peptide solution were used as control values. The control value of each peptide was subtracted from numeric values determined from images obtained from results about the serum of patients, and the obtained value of the difference was compared with values of the peptides serving as the basis of overlapping.
# Chemiluminescence intensity in images obtained by measurement was converted into a numeric value in the same manner as in (A). Numeric values determined from images obtained as a result of carrying out only the procedures (1) and (4) to (6) described above in the subsection titled (3) Spotting of cellulose-bound peptide solution (secondary antibody measurement values) were used as control values. The control value of each peptide was subtracted from numeric values determined from images obtained from results about the serum of patients. When values obtained using the sequences (SEQ ID NOs: 5, 25, 35, 68 and 83) serving as the basis of overlapping were defined as 100%, it was determined that: a peptide having a value of the difference that was less than 30% had no binding activity against IgE antibodies; a peptide having a value of the difference that was 30% or more and less than 50% had binding activity, albeit poor, against IgE antibodies; a peptide having a value of the difference that was 50% or more and less than 70% had binding activity, albeit somewhat poor, against IgE antibodies; and a peptide having a value of the difference that was 70% or more had equivalent or good binding activity against IgE antibodies and was thus a peptide had remaining binding activity against IgE antibodies.
# From the amino acid sequences identified above in (A), a library of peptide fragments in which amino-terminal amino acids were substituted one by one by alanine (or glycine when the original amino acid was alanine) according to a technique called alanine/glycine scanning (Non Patent Literature 5) was prepared by the same technique as described above. The presence or absence of binding of an IgE antibody present in the serum of a patient to each peptide fragment was measured by the same technique as described above.
# Chemiluminescence intensity in images obtained by measurement was converted into a numeric value in the same manner as in (A). Numeric values determined from images obtained from secondary antibody measurement values were used as control values. The control value of each peptide was subtracted from numeric values determined from images obtained from results about the serum of 17 patients (patient Nos. P1-P17). […]
# [1] = serum of latex-allergic patient P17
# [2] = serum of latex-allergic patient P2
# [3] = serum of latex-allergic patient P5
# [4] = serum of latex-allergic patient P8
# [5] = serum of latex-allergic patient P7
# [6] = serum of latex-allergic patient P15
# [7] = serum of latex-allergic patient P1
# [8] = serum of latex-allergic patient P4
# [9] = serum of latex-allergic patient P6
# [10] = serum of latex-allergic patient P12
# [11] = serum of latex-allergic patient P9
# [12] = serum of latex-allergic patient P3
substance,measurement,setting,value
34 (DKPLNDRYS; epitope) [compound 34],epitope sequence grade for binding to IgE antibody,[1],Key
QKPY (epitope) [SEQ ID NO: 6],confirmed as epitope binding to IgE antibodies,,confirmed as epitopes binding to IgE antibodies
93 (KFYDDK; epitope) [compound 93],epitope sequence grade for binding to IgE antibody,[2],Preferably
71 (VNVIHKVGKG; epitope) [compound 71],epitope sequence grade for binding to IgE antibody,[3],More preferably
14 (QKPYDK; epitope) [compound 14],epitope sequence grade for binding to IgE antibody,[4],Preferably
13 (QKPY; epitope) [compound 13],epitope sequence grade for binding to IgE antibody,[5],Key
32 (KPLN; epitope) [compound 32],epitope sequence grade for binding to IgE antibody,[6],Key
87 (YDDKNGYSSS; epitope) [compound 87],epitope sequence grade for binding to IgE antibody,[7],Further preferably
KVGK (epitope) [SEQ ID NO: 78],confirmed as epitope binding to IgE antibodies,,confirmed as epitopes binding to IgE antibodies
117 (SKFYD; epitope) [compound 117],epitope sequence grade for binding to IgE antibody,[1],Key
6 (QKPY; epitope) [compound 6],epitope sequence grade for binding to IgE antibody,[7],Key
101 (DKNGYSSS; epitope) [compound 101],epitope sequence grade for binding to IgE antibody,[8],More preferably
26 (DKPLN; epitope) [compound 26],epitope sequence grade for binding to IgE antibody,[2],Key
10 (QKPYDK; epitope) [compound 10],epitope sequence grade for binding to IgE antibody,[9],Preferably
109 (WSKFYDDK; epitope) [compound 109],epitope sequence grade for binding to IgE antibody,[5],Key
31 (DKPLND; epitope) [compound 31],epitope sequence grade for binding to IgE antibody,[6],Preferably
KPLN (epitope) [SEQ ID NO: 30],confirmed as epitope binding to IgE antibodies,,confirmed as epitopes binding to IgE antibodies
18 (QKPYDK; epitope) [compound 18],epitope sequence grade for binding to IgE antibody,[10],Preferably
52 (LKSYK; epitope) [compound 52],epitope sequence grade for binding to IgE antibody,[11],Key
112 (WSKFYDDKNG; epitope) [compound 112],epitope sequence grade for binding to IgE antibody,[10],More preferably
28 (KPLNDRYS; epitope) [compound 28],epitope sequence grade for binding to IgE antibody,[9],Key
114 (KFYDDK; epitope) [compound 114],epitope sequence grade for binding to IgE antibody,[10],Key
48 (KSNSVATDI; epitope) [compound 48],epitope sequence grade for binding to IgE antibody,[4],Further preferably
27 (KPYDKP; epitope) [compound 27],epitope sequence grade for binding to IgE antibody,[9],Key
98 (WSKFYDDK; epitope) [compound 98],epitope sequence grade for binding to IgE antibody,[8],More preferably
29 (DKPLNDR; epitope) [compound 29],epitope sequence grade for binding to IgE antibody,[11],Key
12 (QKPYD; epitope) [compound 12],epitope sequence grade for binding to IgE antibody,[5],Preferably
63 (VATDIY; epitope) [compound 63],epitope sequence grade for binding to IgE antibody,[10],More preferably
24 (QKPY; epitope) [compound 24],epitope sequence grade for binding to IgE antibody,[1],Key
66 (SYKSNS; epitope) [compound 66],epitope sequence grade for binding to IgE antibody,serum of latex-allergic patient P13,Key
22 (QKPYDKPLN; epitope) [compound 22],epitope sequence grade for binding to IgE antibody,[1],More preferably
58 (SYKSNSVATD; epitope) [compound 58],epitope sequence grade for binding to IgE antibody,[10],Still further preferably
9 (EDNFVIQKPY; epitope) [compound 9],epitope sequence grade for binding to IgE antibody,[9],More preferably
69 (HKVGKGEI; epitope) [compound 69],epitope sequence grade for binding to IgE antibody,[7],Preferably
99 (KFYDDKNGYS; epiotope) [compound 99],epitope sequence grade for binding to IgE antibody,[8],Preferably
104 (WSKFYDDK; epitope) [compound 104],epitope sequence grade for binding to IgE antibody,[3],More preferably
36 (LKSYKSNSVA; epitope) [compound 36],epitope sequence grade for binding to IgE antibody,[12],Most preferably
95 (DDKNGYSSS; epitope) [compound 95],epitope sequence grade for binding to IgE antibody,[2],More preferably
46 (LKSYKSNSVA; epitope) [compound 46],epitope sequence grade for binding to IgE antibody,[4],Preferably
38 (SYKSNSVA; epitope) [compound 38],epitope sequence grade for binding to IgE antibody,[12],More preferably
7 (DNFVIQKPYD; epitope) [compound 7],epitope sequence grade for binding to IgE antibody,[2],Preferably
75 (HKVGKGEI; epitope) [compound 75],epitope sequence grade for binding to IgE antibody,[3],More preferably
88 (DDKNGYSSS; epitope) [compound 88],epitope sequence grade for binding to IgE antibody,[7],More preferably
105 (SKFYDDK; epitope) [compound 105],epitope sequence grade for binding to IgE antibody,[3],Preferably
91 (WSKFYDDK; epitope) [compound 91],epitope sequence grade for binding to IgE antibody,[2],Further preferably
59 (SYKSNSVA; epitope) [compound 59],epitope sequence grade for binding to IgE antibody,[10],Further preferably
116 (WSKFYD; epitope) [compound 116],epitope sequence grade for binding to IgE antibody,[1],Preferably
100 (KFYDDK; epitope) [compound 100],epitope sequence grade for binding to IgE antibody,[8],Key
21 (FVIQKPYD; epitope) [compound 21],epitope sequence grade for binding to IgE antibody,[1],Further preferably
118 (YDDKNGYSSS; epitope) [compound 118],epitope sequence grade for binding to IgE antibody,[1],Preferably
15 (QKPYD; epitope) [compound 15],epitope sequence grade for binding to IgE antibody,[4],Key
16 (QKPYDK; epitope) [compound 16],epitope sequence grade for binding to IgE antibody,[11],Key
85 (SKFYDDKN; epitope) [compound 85],epitope sequence grade for binding to IgE antibody,[7],Preferably
107 (YDDKNGYSSS; epitope) [compound 107],epitope sequence grade for binding to IgE antibody,[3],Preferably
106 (KFYDDK; epitope) [compound 106],epitope sequence grade for binding to IgE antibody,[3],Key
23 (QKPYD; epitope) [compound 23],epitope sequence grade for binding to IgE antibody,[1],Preferably
57 (LKSYKSNSVA; epitope) [compound 57],epitope sequence grade for binding to IgE antibody,[10],Most preferably
11 (QKPY; epitope) [compound 11],epitope sequence grade for binding to IgE antibody,[9],Key
113 (WSKFYDDKN; epitope) [compound 113],epitope sequence grade for binding to IgE antibody,[10],Preferably
67 (KSNSV; epitope) [compound 67],epitope sequence grade for binding to IgE antibody,[1],Key
47 (LKSYKSNSV; epitope) [compound 47],epitope sequence grade for binding to IgE antibody,[4],Key
53 (KSNSVATDIY; epitope) [compound 53],epitope sequence grade for binding to IgE antibody,[11],Further preferably
